Earlier results, collected in US7098224B2, “Hydroxylansoprazole methods” (Sepracor Inc., priority 1998, dated 2006).

System: isolated parietal cells
Details: Inatomi et al., Yakuri to Chiryo 19, 477–486 (1991)

| IC50 (read-out: inhibited acid formation in isolated parietal cells, IC50) [nM] | SMILES | inhibition of acid formation in isolated parietal cells (result in words) |
| --- | --- | --- |
| 90 | Cc1c(OCC(F)(F)F)ccnc1C[S+]([O-])c1nc2ccccc2[nH]1 (racemic) [lansoprazole, Lansoprazole] | – |
| – | Cc1c(OCC(F)(F)F)ccnc1C[S+]([O-])c1nc2cc(O)ccc2[nH]1 (racemic) [racemic hydroxylansoprazole, 2[[[3-methyl-4-(2,2,2-trifluoroethoxy)-2-pyridinyl]methyl]sulfinyl]-1 H-benzimidazol-5-ol] | did not inhibit acid formation |
